Here are results for twelve molecules from ChEMBL document CHEMBL1201862, “PubChem BioAssay data set” (2004).

Molecules are shown by their SMILES.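 Growth conditions: 96-well plates. Treatment: test compound, 48 hours, 5 concentrations. Analysis: linear interpolation between bracketing concentrations; unreached endpoints set to highest concentration. GI50 is the concentration that inhibits growth by half.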 Activity calls are given as the source filed them. Cut-off read from the data, not from the text of the source: active = GI50 up to about 1.1 µM and inactive = higher.

Some test systems named below: EKVX; OVCAR-3; BT-549; SF-268; K562; A549; SNB-75; RXF 393; HT-29; CCRF-CEM; SW-620; HOP-62; UO-31; OVCAR-8; MDA-MB-435; NCI-H460; HL-60; COLO 205; HOP-92.
Holding throughout (experiment): NCI anticancer screen, dose series, 48 h

As to `O=c1c(S(=O)(=O)Oc2ccccc2)coc2cc(F)ccc12`, the GI50 is > 100 µM (inactive) in the test with EKVX; > 100 µM (inactive) in the test on OVCAR-3; 37.2 µM (inactive) in the test with BT-549; > 100 µM (inactive) in the test with SF-268; > 100 µM (inactive) with K562; > 100 µM (inactive) with A549. Moreover, the GI50 in the test with SNB-75 is 30.9 µM (inactive); with RXF 393, 36.1 µM (inactive); with HT-29, > 100 µM (inactive); with CCRF-CEM, 65.3 µM (inactive); in the test with SW-620 it was > 100 µM (inactive); with HOP-62, > 100 µM (inactive). Also, the GI50 in the test on UO-31 is 46.8 µM (inactive); in the test on OVCAR-8, > 100 µM (inactive); in the test with MDA-MB-435, > 100 µM (inactive); in the test with NCI-H460, > 100 µM (inactive).
On to `N#CC(C#N)=Cn1c(=S)[nH]c2ccc([N+](=O)[O-])cc21`, for which the GI50 with EKVX, in the test on OVCAR-3, in the test on HL-60, in the test with COLO 205, with SF-268 and with K562 was > 100 µM (inactive) throughout. For the same molecule, the GI50 in the test on A549 was > 100 µM (inactive); in the test on SNB-75, 15.2 µM (inactive); in the test on RXF 393 it was > 100 µM (inactive); with HT-29, > 100 µM (inactive); with CCRF-CEM it was > 100 µM (inactive); in the test on SW-620 it was > 100 µM (inactive). For the same molecule, the GI50 in the test on HOP-62, in the test with UO-31, in the test with OVCAR-8, with MDA-MB-435, in the test with HOP-92 and in the test on NCI-H460 was > 100 µM (inactive) throughout.
Regarding `COc1ccccc1Nc1nc2c([nH]1)c(=O)n(C)c(=O)n2C`, the GI50 in the test on EKVX, in the test with HL-60, with COLO 205, with SF-268, in the test on K562 and in the test with A549 was > 10 µM (inactive) each time. Besides, the GI50 in the test with SNB-75, in the test with RXF 393, with HT-29, in the test on CCRF-CEM, with SW-620 and in the test with HOP-62 was > 10 µM (inactive) each time. In addition, the GI50 in the test with OVCAR-8, with MDA-MB-435 and in the test with HOP-92 was > 10 µM (inactive) each time.
In the case of `COc1ccc(/C=C/C(=O)c2cc(OC)cc(OC)c2)cc1`, the GI50 was 6.52 µM (inactive) with EKVX; 4.02 µM (inactive) in the test with OVCAR-3; 0.151 µM (active) in the test with HL-60; 4.56 µM (inactive) with COLO 205; 5.4 µM (inactive) in the test with SF-268; 2.59 µM (inactive) in the test with K562. For the same molecule, the GI50 in the test with A549 is 2.13 µM (inactive); in the test with SNB-75, 2.64 µM (inactive); in the test on RXF 393, 3.33 µM (inactive); with HT-29, 1.91 µM (inactive); with CCRF-CEM, 2.07 µM (inactive); in the test on SW-620 it was 0.64 µM (active). Besides, the GI50 was 3.78 µM (inactive) in the test with HOP-62; 3.27 µM (inactive) in the test on UO-31; 3.39 µM (inactive) with OVCAR-8; 1.54 µM (inactive) in the test with MDA-MB-435; 20.8 µM (inactive) with HOP-92; 2.9 µM (inactive) with NCI-H460.
For the molecule `CCOC(=O)c1c(SC(=O)C(C)(C)Oc2ccc(Cl)cc2)n(-c2ccccc2)c(=S)n(-c2ccccc2)c1=O`, the GI50 is 52.8 µM (inactive) in the test on EKVX; 32.1 µM (inactive) with OVCAR-3; 19.5 µM (inactive) with HL-60; 20.7 µM (inactive) in the test with COLO 205; 20.2 µM (inactive) with SF-268; 30.8 µM (inactive) with K562. The GI50 was 26.9 µM (inactive) with A549; 51.4 µM (inactive) in the test on SNB-75; 25.1 µM (inactive) in the test with RXF 393; 27.4 µM (inactive) in the test on HT-29; 30.1 µM (inactive) with CCRF-CEM; 22.6 µM (inactive) with SW-620. Further, the GI50 was 26 µM (inactive) in the test with HOP-62; 19.6 µM (inactive) with OVCAR-8; 33 µM (inactive) in the test on MDA-MB-435; 35.6 µM (inactive) with HOP-92; 22.1 µM (inactive) with NCI-H460.
Consider `CC(C)(C)c1ccc(/C=N/NC(=O)CSCC(=O)N/N=C/c2ccc(C(C)(C)C)cc2)cc1`, for which the GI50 with EKVX was 2.65 µM (inactive); in the test with HL-60, 1.72 µM (inactive); in the test with COLO 205, 1.17 µM (inactive); in the test on SF-268 it was 1.9 µM (inactive); in the test with K562, 2.55 µM (inactive); in the test on A549, 2.86 µM (inactive). Moreover, the GI50 with SNB-75 was 5.32 µM (inactive); with RXF 393, 2.15 µM (inactive); in the test on HT-29, 1.83 µM (inactive); in the test with SW-620 it was 2.59 µM (inactive); in the test on HOP-62, 2.96 µM (inactive); with UO-31, 3.71 µM (inactive). The GI50 with OVCAR-8 was 2.63 µM (inactive); in the test with HOP-92, 2.49 µM (inactive); in the test on NCI-H460, 3.61 µM (inactive).
As to `NC(=O)c1cccc(OCC(O)CO)c1` (stereo unspecified), the GI50 with EKVX, in the test on OVCAR-3, with HL-60, in the test with COLO 205, in the test on BT-549 and with SF-268 was > 100 µM (inactive) in each case. For the same molecule, the GI50 in the test with K562, in the test on A549, in the test on SNB-75, in the test on HT-29, in the test with CCRF-CEM and with SW-620 was > 100 µM (inactive) each time. Also, the GI50 in the test with HOP-62, in the test on UO-31, in the test on OVCAR-8 and in the test on NCI-H460 was > 100 µM (inactive) in each case.
For `CC(C)=Cc1cc(C)c2c(O)cc(C)c3c2c1C(C)=C(O)C3=O`, the GI50 was 20.6 µM (inactive) in the test on OVCAR-3; 29.9 µM (inactive) in the test on HL-60; 13 µM (inactive) in the test on COLO 205; 21.1 µM (inactive) in the test with SF-268; 13 µM (inactive) in the test on K562; 24.8 µM (inactive) with A549. Further, the GI50 in the test with HT-29 was 14.9 µM (inactive); with CCRF-CEM it was < 0.01 µM (active); with SW-620 it was 31.5 µM (inactive); in the test with HOP-62, 20.7 µM (inactive); in the test on UO-31 it was 32.7 µM (inactive); in the test with OVCAR-8, 38.1 µM (inactive). For the same molecule, the GI50 in the test with MDA-MB-435 was 26.5 µM (inactive); in the test with HOP-92 it was 7.85 µM (inactive); in the test on NCI-H460, 21.2 µM (inactive).
As for `COc1ccc2oc(OC)c(CC=C(C)C)c(=O)c2c1C`, the GI50 with EKVX, in the test on OVCAR-3, with HL-60, in the test with COLO 205, in the test on BT-549 and with SF-268 was > 100 µM (inactive) in each case. Moreover, the GI50 in the test on K562, with A549, with SNB-75, with HT-29, in the test on CCRF-CEM and in the test with SW-620 was > 100 µM (inactive) each time. Moreover, the GI50 in the test on HOP-62, in the test with UO-31, in the test with OVCAR-8, in the test on MDA-MB-435 and with NCI-H460 was > 100 µM (inactive) each time.
For the molecule `CNc1cc(N)ccc1C(=O)N1CCC[C@H]1CO`, the GI50 with EKVX, in the test on OVCAR-3, in the test with SF-268, in the test with K562, in the test on A549 and with SNB-75 was > 100 µM (inactive) each time. Besides, the GI50 with HT-29, in the test on SW-620, in the test on HOP-62, in the test with UO-31, in the test on OVCAR-8 and with MDA-MB-435 was > 100 µM (inactive) in each case. The GI50 in the test on HOP-92 and in the test with NCI-H460 was > 100 µM (inactive) in each case.
Consider `CC(=O)Oc1ccc2cc(-c3ccccc3OC(C)=O)c(=O)oc2c1`, for which the GI50 with EKVX was 25.2 µM (inactive); in the test on OVCAR-3, 24.8 µM (inactive); in the test with HL-60 it was 3.24 µM (inactive); with COLO 205, > 100 µM (inactive); in the test with BT-549, 4.17 µM (inactive); in the test on SF-268, 19.1 µM (inactive). Besides, the GI50 in the test with K562 was 38 µM (inactive); with A549, 32.1 µM (inactive); with SNB-75, 11.7 µM (inactive); with HT-29, > 100 µM (inactive); in the test on CCRF-CEM, 6.15 µM (inactive); in the test on SW-620 it was 64.6 µM (inactive). Further, the GI50 in the test on HOP-62 was 54.1 µM (inactive); in the test on UO-31 it was 4.97 µM (inactive); in the test on OVCAR-8 it was 62.4 µM (inactive); with MDA-MB-435, 10.9 µM (inactive); in the test with NCI-H460, 86.5 µM (inactive).
`O=C(O)C1CCCCC1c1c2ccc(=O)c(O)c-2oc2c(O)c(O)ccc12` (stereo unspecified): the GI50 with EKVX is 38.1 µM (inactive); in the test with OVCAR-3, 42.1 µM (inactive); in the test with HL-60, 20.7 µM (inactive); with COLO 205 it was > 100 µM (inactive); in the test on SF-268, 9.38 µM (inactive); with K562, 17.9 µM (inactive). Besides, the GI50 with A549 was 13 µM (inactive); with SNB-75, 28.3 µM (inactive); in the test with RXF 393, 69.7 µM (inactive); with HT-29 it was 74.5 µM (inactive); in the test with CCRF-CEM, 0.18 µM (active); with SW-620 it was 17.6 µM (inactive). Moreover, the GI50 in the test on HOP-62 was 31.6 µM (inactive); in the test on UO-31, 44.4 µM (inactive); in the test on OVCAR-8 it was 22 µM (inactive); in the test with MDA-MB-435 it was 16.7 µM (inactive); in the test on HOP-92, 31.6 µM (inactive); in the test on NCI-H460, 37.7 µM (inactive).
